This note sets out measurements from US20230393170A1, “IN SITU MECHANICAL CHARACTERIZATION OF A SAMPLE STRAIN” (BOARD OF REGENTS OF THE UNIVERSITY OF NEBRASKA, priority 2020, published 2023).

Molecules are shown by their SMILES. Entries after “also recorded” stand apart in the source; their conditions may differ.

This test deals with A431 cell pair cell-cell junction. As to the kind of experiment: Displacement-controlled stretch test of a single cell pair treated with contractility modulators. Format: cell-based. From the text:
To apply strain to the cell-cell junction, the test platform was placed with deposited cells under the AFM integrated with an inverted microscope. An AFM probe with a through-hole drilled at the front end using a focused ion beam (FIB) is positioned above the micropillar on Island 2 and then lowered to capture it within the through-hole. With this, displacement was applied and displacement rates were tried to investigate the mechanical behavior of the cell-cell junction with obtained stress-strain curves (as discussed below with reference to FIG. 12).
The cell pair was treated with cellular contractility modulators, RhoA Activator I. CN01, and myosin II inhibitor: blebbistatin (Bleb), to examine the impact of actomyosin activity on the mechanical behavior of the cell pair under mechanical stress. Stress-strain curves collected at 0.5% s^−1 strain rate show a clear contrast between samples treated with CN01, Bleb, and DMSO control. […] The stress-strain curves were then analyzed using the constitutive model. […] The increase (decrease) in both η and E2 by CN01 (Bleb) is consistent with the enhanced (reduced) stress fiber formation.
Zyxin staining was performed to visualize the focal adhesion points between cells and the structure. After fixing the cells (see above), the anti-zyxin antibody (Sigma) with a ratio of 1:250 with PBS was added to the sample and refrigerated for 24 hours. The solution was then removed, and the sample was washed with PBS. PBS was replaced by Goat anti-Rabbit IgG (H+L), Superclonal™ Recombinant Secondary Antibody, Alexa Fluor 647 (Thermofisher) and incubated for 1 hour at 37° C. Finally, the sample was washed with PBS and the actin and nuclei staining protocol were performed. Pharmacological treatments modulating cell contractility included 3 μM blebbistatin (Bleb) (Sigma-Aldrich) for 2 h and 1 unit/ml Rho Activator I (CN01; Cytoskeleton, Inc., Denver, CO) for 30 min.
A modified version of MATLAB digital image correlation (DIC) was used to analyze the frames from the stretch test. The first frame was considered as the reference and the rest of the frames were compared to the reference frame to calculate the displacement of each island. A region of interest with markers within the region was defined for both islands. Then, the MATLAB code calculated the markers' new coordinates with respect to the first frame, from which the displacement of the islands was calculated. The force is defined by the Island 1 displacement multiplied by its stiffness, and the stress is acquired by dividing the force by the junction cross-section (approximately 120 μm^2). The strain is then calculated as the difference between the islands' displacements divided by the cell-cell junction's initial length (approximately 20 μm).
Each stretch test was recorded with a screen recorder software (Camtasia) and the movie was divided into frames that were analyzed with a customized DIC-based program to calculate each island's movement. In this method, a region of interest is defined and, within this region, a few markers are placed. The higher the number of markers, the better the resolution of the calculated displacement is. Then, when the coordinates of these markers change, a corresponding red marker appears (FIGS. 12A and 12B). In the first frame, both initial and displaced positions of markers are completely overlapped so just red markers are shown. […] The strain is calculated by dividing the difference of both islands' displacements by the initial length […]. […]

[1] abbreviates: 0.5% s^-1 strain rate, fit of stress-strain curves.

Regarding `Cc1ccc2c(c1)C(=O)C1(O)CCN(c3ccccc3)C1=N2` (centres unmarked) [Bleb, blebbistatin], the “rupture of the cell-cell adhesion junction” value (0.5% s^-1 (100 nm/s) strain rate) is “ruptured at the initial stages”. For the same compound, the “overall stress level compared with controls” value (0.5% s^-1 strain rate (100 nm/s), CN01 1 unit/ml 30 min, Bleb 3 μM 2 h, vs DMSO control) was “reduces the stress accumulation; also recorded: stress level was low compared to other conditions”. In addition, under setting [1], the “Membrane stiffness, E1 (MSLS model fit)” value is “stays the same for all conditions”; the “elastic moduli of the intracellular components, E2 (MSLS model fit)” value was “reduces them”; the “viscosity, η (MSLS model fit)” value is reported as “reduces them”.
